Results on six molecules are retold here after patent publication US20040220164A1, “Triaza compound immunoregulatory agents” (priority 2001, published 2004).

Each structure is given as a SMILES string. Converted amounts (≈) assume the structure as drawn. Read-outs that look alike come from different tables or passages of the source.

Series [1] deals with T1, CD4 (Homo sapiens, UniProt P01730). As to the kind of experiment: Cell surface CD4 expression by flow cytometry (anti-CD4 mAb Leu3a-PE). Type of series: cell-based. More on the design: To study the effect of the CADA derivatives on surface CD4 antigen expression, MT-4 and SupT1 cells were incubated; endogenous in cells; host or cells: MT-4, SupT1, PBMC. How it is done:
FIGS. 2A-2C. Surface CD4 expression in MT-4 cell line, SupT1 cell line and PBMCs after incubation with CADA hydrochloride (3.2 or 16 μM) for 1 and 4 days. (A) Cell surface CD4 expression of control MT-4 cells and MT-4 cells treated with CADA (3.2 μM) for 1 day or 4 days. (B) Cell surface CD4 expression of control SupT1 cells and SupT1 cells treated with CADA (3.2 μM) for 1 day or 4 days. (C) Cell surface CD4 expression of control PBMCs and PBMCs treated with CADA (16 μM) for 1 day or 4 days. The cells were stained with anti-CD4 mAb (Leu3a-PE). Percentages of fluorescent cells and MFI (mean fluorescence intensity) are indicated in each histogram.
FIG. 4. Comparison of the effects on CD4 modulation by ATA (24 μM), CADA hydrochloride (16 μM) and PMA (8 nM) in SupT1 cells after incubation with the compounds analyzed after 20 minutes, 4 hours, 1 day and 4 days.
Cells were incubated with CADA hydrochloride and the CD4 expression on the cell surface was analyzed. […] In peripheral blood mononuclear cells (PBMCs), the percentage of CD4 expression decreased to 0.2% after incubation with CADA (16 μM) for 4 days (FIG. 2).
Expression of various other surface antigens was also examined in MT-4 cells, SupT1 cells and PBMCs after incubation with CADA (16 μM) or CADA-free medium at 37° C. for 4 days. After washing with phosphate-buffered saline (PBS) containing 2% FCS(fetal calf serum), the cells were incubated with mAb (as indicated in Table 1) for 20 min at 4° C. Then the cells were washed, fixed with 1% formaldehyde and analyzed by flow cytometry. All mAbs were purchased from Becton-Dickinson (Erembodegem, Belgium).
CADA was compared with ATA and PMA with regard to their down-modulating effects. […] At day 4, the CD4 expression in SupT1 cells treated with CADA reduced to 1.2%.

The subject of another series is HIV-1 strain NL4.3. The experiment in a line: Anti-HIV-1 assay in MT-4 cells (p24 Ag ELISA, Example 3). In kind it is cell-based. The following applies: Human immunodeficiency virus 1, MT4; MT-4 cells; read-out: IC50 HIV-1 (NL4.3), p24 Ag ELISA. The method, then:
Antiviral Assays. For HIV-1, MT-4 cells were infected with the HIV-1 strain NL4.3. Briefly, five-fold dilutions of the compounds (in 100 μl) were added to 96-well flat bottom plates (Iwaki, Japan). Then, to each well, 7.5×10^4 MT-4 cells were added in 50 μl medium, followed by 50 μl of diluted HIV-1 stock (strain NL4.3). Cytopathic effect (CPE) induced by the virus was checked regularly microscopically. When strong CPE was observed (after 3 to 5 days of incubation) in untreated HIV-1 infected cells, the supernatant was collected, stored at −20° C. and analyzed for HIV-1 core antigen by p24 Ag ELISA (NEN™, PerkinElmer Life Sciences, Boston, Mass.). Finally, the IC50 value of the compounds (i.e., the concentration of the compound required for 50% reduction of HIV infection as measured by viral p24 antigen level in the supernatant of infected MT-4 cells) was calculated.
In general terms: An ELISA detects its analyte on a solid surface through an enzyme-linked reagent.

Series [2] concerns the target T1, CD4. As to the kind of experiment: CD4 down-modulation, flow cytometry with FITC-conjugated anti-CD4 (SK3) mAb, SupT1 cells. In kind it is cell-based. More on the design: To study the effect of the CADA derivatives on surface CD4 antigen expression, MT-4 and SupT1 cells were incubated; endogenous in cells; host or cells: MT-4, SupT1, PBMC. As to conditions: for IC50: day 4, read-out: IC50 CD4 (50% inhibition of extracellular CD4 expression) (converted). How it is done: (§1) Flow Cytometric Analyses. To study the effect of the CADA derivatives on surface CD4 antigen expression, MT-4 and SupT1 cells were incubated with a serial 5-fold dilution of the compounds (50, 10, 2, 0.4 and 0.08 μg/ml) or medium at 37° C. Cell surface CD4 antigen expression was analyzed at day 3 (MT-4) or day 4 (SupT1). Briefly, after washing with phosphate-buffered saline (PBS) containing 2% fetal calf serum (FCS), cells were incubated with FITC-conjugated anti-CD4 (SK3) mAb for 30 min at 4° C. As a negative control for a specific background staining, cells were stained in parallel with Simultest Control γ1/γ^2a (Becton Dickinson). Then the cells were washed, fixed with 1% formaldehyde and analyzed by flow cytometry in a FACScalibur (Becton Dickinson, San Jose, Calif., USA). Data were acquired and analyzed with CellQuest software (Becton Dickinson). For the calculation of the CD4 receptor expression, the mean fluorescence intensity (MFI) of each sample was expressed as percentage of the MFI of control cells (after subtracting the MFI of the isotype control). Finally, the IC50 value of the compounds (i.e., the concentration of the compound required for 50% inhibition of extracellular CD4 expression) was calculated.
(In general: Flow cytometry measures light scatter and fluorescence of single cells or particles in a stream.)

A short description of series [3]: Cytotoxicity assay (trypan blue exclusion, propidium iodide). The following applies: human, read-out: CC50 (50% cytotoxic concentration). Type of series: cell-based, human. How it is done: Cytotoxicity Assay. Cellular toxicity of the compounds was measured by trypan blue exclusion and also by Propidium Iodide by flow cytometry after 3 or 4 days of incubation, in parallel with the CD4 antigen expression. The CC50 value of each CADA analog is the concentration (in μg/ml) required to reduce the viability of the cells by 50%.

The test system of another series is HHV-7 (KHR strain). The experiment in a line: Anti-HHV-7 assay in SupT1 cells (antigen expression, flow cytometry, Example 3). The following applies: SUP-T1; SupT1 cells; read-out: IC50 HHV-7 (50% reduction of HHV-7 antigen expression). Type of series: cell-based. How it is done: For HHV-7, five-fold dilutions of the compounds were added in 500 μl culture medium in 24-well flat bottom plates (Iwaki, Japan), whereupon 2×10^5 SupT1 cells were added in 400 μl culture medium. After 30 min incubation at room temperature, 100 μl of HHV-7 stock was added to each well. HHV-7-infected and mock-infected SupT1 cells were cultured in a final volume of 1 ml medium in the absence of the compounds. On day 4, half of the medium and the cells were replaced and fresh medium without new compound was added. This procedure was repeated every 2 or 3 days. The CPE was checked regularly microscopically. When CPE was observed, the HHV-7 antigen expression was monitored by flow cytometry, as described previously (Zhang, Y. et al. (1999) “Selective activity of various antiviral compounds against HHV-7 infection Antiviral Res. 43, 23-35.)

The target of series [4] is T1, CD4. As to the kind of experiment: CD4 down-modulation, flow cytometry with FITC-conjugated anti-CD4 (SK3) mAb, MT-4 cells. The arrangement: To study the effect of the CADA derivatives on surface CD4 antigen expression, MT-4 and SupT1 cells were incubated; endogenous in cells; host or cells: MT-4, SupT1, PBMC. In kind it is cell-based. As to conditions: for IC50: MT-4 cells, day 3, read-out: IC50 CD4 (50% inhibition of extracellular CD4 expression) (converted); for CD4 down-modulating activity compared with CADA or parent analog (in words): structure-activity discussion of Table 5 (MT-4 and SupT1 cells). How it is done:
as §1, with “Cell surface CD4 antigen expression was analyzed at day 3 (MT-4) or day 4 (SupT1).” left out

The term IC50 denotes the concentration needed to halve the response being measured. As for `C=C1CN(S(=O)(=O)c2ccc(C)cc2)CCCN(C(C)C)CCCN(S(=O)(=O)c2ccc(C)cc2)C1` [QJ035], the “down-regulation of CD4 expression (in words)” value on CD4 [1] was “down-regulate CD4 expression”. Further, the half-inhibitory concentration (IC50) in the series with HIV-1 strain NL4.3 was 5.55 µg/mL (≈ 10.4 µM); at CD4 [2] it was over 18.7 µM; in the series on HHV-7 (KHR strain) it was 1.4 µg/mL (≈ 2.62 µM); on CD4 [4] it was 11.4 µM. At CD4 [2], the “CD4 down-regulation (in words)” value is listed as “not active”. Further, the CC50 in series [3] (MT-4 cells) was determined as 22.2 µg/mL (≈ 41.6 µM); in series [3] (SupT1 cells), 23 µg/mL (≈ 43.1 µM). Besides, the “CD4 down-modulating activity, fold less active than CADA” value on CD4 [4] (compared to CADA, MT-4 cells (stated for some compounds)) was 17 fold.
As for `C=C1CN(S(=O)(=O)c2ccc(C)cc2)CCCN(C(C)CC)CCCN(S(=O)(=O)c2ccc(C)cc2)C1` (stereo not shown) [QJ036], at CD4 [1], the “down-regulation of CD4 expression (in words)” value is “down-regulate CD4 expression”. The IC50 was 0.95 µg/mL (≈ 1.73 µM) in the series with HIV-1 strain NL4.3, 3.27 µM at CD4 [2], 1.19 µg/mL (≈ 2.17 µM) with HHV-7 (KHR strain) and 2.12 µM on CD4 [4]. For the same molecule, the CC50 in series [3] (MT-4 cells) is 20.9 µg/mL (≈ 38.2 µM); in series [3] (SupT1 cells), over 50 µg/mL. Further, the “CD4 down-modulating activity compared with CADA or parent analog (in words)” value on CD4 [4] is “somewhat in between”.
For the molecule `C=C1CN(S(=O)(=O)c2ccc(C)cc2)CCCN(CC(C)CC)CCCN(S(=O)(=O)c2ccc(C)cc2)C1` (stereo not shown) [QJ037], the “down-regulation of CD4 expression (in words)” value at CD4 [1] is on record as “down-regulate CD4 expression”. Further, the 50% inhibitory concentration (IC50) in the series with HIV-1 strain NL4.3 was 0.48 µg/mL (≈ 0.854 µM); on CD4 [2], 1.23 µM; in the series with HHV-7 (KHR strain), 0.13 µg/mL (≈ 0.231 µM); at CD4 [4], 0.943 µM. Also, the CC50 turned out to be 22.1 µg/mL (≈ 39.3 µM) in series [3] (MT-4 cells) and 24 µg/mL (≈ 42.7 µM) in series [3] (SupT1 cells).
With `C=C1CN(S(=O)(=O)c2ccc(C)cc2)CCCN(CCC(C)C)CCCN(S(=O)(=O)c2ccc(C)cc2)C1` [QJ038], the “down-regulation of CD4 expression (in words)” value at CD4 [1] was “down-regulate CD4 expression”. In addition, the IC50 in the series on HIV-1 strain NL4.3 was 0.31 µg/mL (≈ 0.552 µM); at CD4 [2] it was 0.854 µM; in the series on HHV-7 (KHR strain) it was 0.34 µg/mL (≈ 0.605 µM); on CD4 [4] it was 0.73 µM. Also, the values for the CC50 in series [3] (MT-4 cells) and in series [3] (SupT1 cells) were 19.4 µg/mL (≈ 34.5 µM) and 8.4 µg/mL (≈ 15 µM), respectively.
With `C=C1CN(S(=O)(=O)c2ccc(C)cc2)CCCN(C2CCCC2)CCCN(S(=O)(=O)c2ccc(C)cc2)C1` [QJ040], the “down-regulation of CD4 expression (in words)” value at CD4 [1] is reported as “down-regulate CD4 expression”. The IC50 is 4.23 µg/mL (≈ 7.56 µM) in the series with HIV-1 strain NL4.3, 14.1 µM on CD4 [2], 1.55 µg/mL (≈ 2.77 µM) with HHV-7 (KHR strain) and 9.54 µM on CD4 [4]. The CC50 amounted to 17 µg/mL (≈ 30.4 µM) in series [3] (MT-4 cells) and 20.5 µg/mL (≈ 36.6 µM) in series [3] (SupT1 cells).
In the case of `C=C1CN(S(=O)(=O)c2ccc(C)cc2)CCCN(CC2CC2)CCCN(S(=O)(=O)c2ccc(C)cc2)C1` [QJ041], the “down-regulation of CD4 expression (in words)” value at CD4 [1] is “down-regulate CD4 expression”. Besides, the IC50 in the series on HIV-1 strain NL4.3 is 3.66 µg/mL (≈ 6.71 µM); at CD4 [2] it was 7.6 µM; in the series on HHV-7 (KHR strain) it was 1.76 µg/mL (≈ 3.22 µM); on CD4 [4], 6.38 µM. The CC50 in series [3] (MT-4 cells) amounted to 18.6 µg/mL (≈ 34.1 µM); in series [3] (SupT1 cells), 21.9 µg/mL (≈ 40.1 µM). In addition, the “CD4 down-modulating activity compared with CADA or parent analog (in words)” value on CD4 [4] is given as “reduced the activity”.
